Measurements from ChEMBL document CHEMBL4414605 (J Med Chem, 2019).

Assays:
[1] = target: T1, D(2) dopamine receptor (Homo sapiens, UniProt P14416)
Description: Displacement of PPHT-red from SNAP-tagged human D2LR expressed in CHOK1 cell membranes assessed as association rate constant by TR-FRET assay

[2] = target: T1, D(2) dopamine receptor; remark: listed apart in the source
Description: Displacement of PPHT-red from SNAP-tagged human D2LR expressed in CHOK1 cell membranes assessed as dissociation rate constant by TR-FRET assay

[3] = target: T1, D(2) dopamine receptor; remark: listed apart in the source
Description: Displacement of PPHT-red from SNAP-tagged human D2LR expressed in CHOK1 cell membranes assessed as dissociation half-life by TR-FRET assay

[4] = target: T1, D(2) dopamine receptor; conditions: 10 min, read-out: INH
[5] = target: T1, D(2) dopamine receptor; remark: listed apart in the source
Description: Binding affinity to SNAP-tagged human D2LR expressed in CHOK1 cell membranes assessed as association rate constant by TR-FRET assay

[6] = target: T1, D(2) dopamine receptor; remark: listed apart in the source
Description: Binding affinity to SNAP-tagged human D2LR expressed in CHOK1 cell membranes assessed as dissociation rate constant by TR-FRET assay

T1 sequence (P14416 whole entry): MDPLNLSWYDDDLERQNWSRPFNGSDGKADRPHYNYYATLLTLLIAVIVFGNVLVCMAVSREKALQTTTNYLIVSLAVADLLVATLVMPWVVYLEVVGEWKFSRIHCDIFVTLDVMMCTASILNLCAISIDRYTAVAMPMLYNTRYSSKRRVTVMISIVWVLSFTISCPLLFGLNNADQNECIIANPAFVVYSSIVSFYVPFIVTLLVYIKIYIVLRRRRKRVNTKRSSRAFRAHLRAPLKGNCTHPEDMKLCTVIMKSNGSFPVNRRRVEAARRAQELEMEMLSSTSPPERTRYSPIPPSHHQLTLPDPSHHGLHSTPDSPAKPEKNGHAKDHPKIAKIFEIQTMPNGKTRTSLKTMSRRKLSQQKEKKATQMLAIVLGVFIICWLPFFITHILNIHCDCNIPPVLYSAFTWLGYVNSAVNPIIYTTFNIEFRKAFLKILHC

Compound | Ka [1] | Kdiss [2] | T1/2 [3] | inhibition at 10 µM [4] | Ka [5] | Kdiss [6]
O=C(CCCN1[C@@H]2CC[C@H]1CC(O)(c1ccc(Cl)cc1)C2)c1ccc(F)cc1 (some centres not stated) | 3.68 ×10⁹ /M/min | 0.00317 s⁻¹ | 215 s |  |  | 
OC1(c2ccc(Cl)cc2)CCN(CCCOc2ccc(F)cc2)CC1 | 1.22 ×10⁹ /M/min | 0.0152 s⁻¹ | 48.6 s |  |  | 
O=C(CCCN1CCC(O)(c2ccccc2)CC1)c1ccc(F)cc1 | 1.22 ×10⁸ /M/min | 0.017 s⁻¹ | 42.6 s |  |  | 
OC1(c2ccc(Cl)cc2)CCN(CC[C@H]2C[C@H]2c2ccc(F)cc2)CC1 (racemic) | 4.47 ×10⁷ /M/min | 0.0228 s⁻¹ | 30.6 s |  |  | 
O=C(CCCN1CCN(c2ccc(Cl)cc2)CC1)c1ccc(F)cc1 | 2.86 ×10⁷ /M/min | 0.0133 s⁻¹ | 53.4 s |  |  | 
Cc1ccccc1C(=O)CCCN1CCC(O)(c2ccc(Cl)cc2)CC1 | 3.66 ×10⁸ /M/min | 0.0138 s⁻¹ | 60.6 s |  |  | 
OC1(c2ccc(Cl)cc2)CCN(CCC#Cc2ccc(F)cc2)CC1 | 1.61 ×10⁷ /M/min | 0.0183 s⁻¹ | 41.4 s |  |  | 
OC1(c2ccc(Cl)cc2)CCN(CC/C=C\c2ccc(F)cc2)CC1 | 3.35 ×10⁷ /M/min | 0.0208 s⁻¹ | 34.8 s |  |  | 
O=C(CCCN1CCC(O)(c2ccc(Cl)cc2)CC1)c1ccccc1F |  | 0.0173 s⁻¹ | 41.4 s |  |  | 
O=C(CCCN1CCC(c2ccccc2)CC1)c1ccc(F)cc1 | 8.99 ×10⁷ /M/min | 0.0118 s⁻¹ | 59.4 s | 20% |  | 
OC1(c2ccc(Cl)cc2)CCN(CCCCCc2ccc(F)cc2)CC1 | 5.51 ×10⁷ /M/min | 0.0203 s⁻¹ | 36 s |  |  | 
OC1(c2ccc(Cl)cc2)CCN(CCCc2ccc(F)cc2)CC1 | 2.29 to 2.45 ×10⁷ /M/min | 0.0222 to 0.0257 s⁻¹ | 27.6 to 34.2 s |  |  | 
O=C(CCCCN1CCC(O)(c2ccc(Cl)cc2)CC1)c1ccc(F)cc1 | 1.42 to 1.8 ×10⁸ /M/min | 0.0275 to 0.0392 s⁻¹ | 18 to 28.8 s |  |  | 
OC1(c2ccc(Cl)cc2)CCN(CCCC#Cc2ccc(F)cc2)CC1 | 6.41 ×10⁷ /M/min | 0.0192 s⁻¹ | 39 s |  |  | 
CCCN(CCc1ccccc1)C1CCc2c(O)cccc2C1 (racemic) |  |  |  |  | 9.21 ×10⁶ /M/min | 0.00583 s⁻¹
O=C(CCCN1CCC(O)(c2ccccc2-c2ccccc2Cl)CC1)c1ccc(F)cc1 | 3.25 ×10⁸ /M/min | 0.0137 s⁻¹ | 53.4 s |  |  | 
O=C(CCN1CCC(O)(c2ccc(Cl)cc2)CC1)c1ccc(F)cc1 | 1.03 to 1.33 ×10⁷ /M/min | 0.0212 to 0.0325 s⁻¹ | 25.8 to 34.2 s |  |  | 
O=C(CCCN1CCC(O)(c2ccc(Cl)cc2)CC1)c1ccccc1 | 6.33 ×10⁸ /M/min | 0.0187 s⁻¹ | 40.2 s |  |  | 
O=C(CCCN1CCC2(c3ccc(Cl)cc3)CC2C1)c1ccc(F)cc1 (configuration not stated) | 2.03 ×10⁹ /M/min | 0.005 s⁻¹ | 141 s |  |  | 
O=C(CCCN1CCC(O)(c2ccc(Cl)c(Cl)c2)CC1)c1ccc(F)cc1 | 2.95 ×10⁹ /M/min | 0.007 s⁻¹ | 100 s |  |  | 
O=C(CCCN1CCC(O)(c2c(Cl)cccc2Cl)CC1)c1ccc(F)cc1 | 5.07 ×10⁸ /M/min | 0.0175 s⁻¹ | 40.2 s |  |  | 
O=C(CCCN1CCC(c2ccc(Cl)cc2)CC1)c1ccc(F)cc1 | 4.31 ×10⁸ /M/min | 0.014 s⁻¹ | 51.6 s |  |  | 
O=C(CCCN1CCC(O)(c2cc(Cl)cc(Cl)c2)CC1)c1ccc(F)cc1 | 6.58 ×10⁸ /M/min | 0.00717 s⁻¹ | 116 s |  |  | 
O=C(CCCN1CCC(O)(c2ccccc2Cl)CC1)c1ccc(F)cc1 | 3.54 ×10⁸ /M/min | 0.0193 s⁻¹ | 36.6 s |  |  | 
OC1(c2ccc(Cl)cc2)CCN(CCCSc2ccc(F)cc2)CC1 | 4.99 ×10⁸ /M/min | 0.0165 s⁻¹ | 44.4 s |  |  | 
O=C(CCCN1CCC(O)(c2ccc(Cl)cc2)CC1)c1ccc(F)cc1F | 1.07 ×10⁷ /M/min | 0.0227 s⁻¹ | 30.6 s |  |  | 
